In patent publication US20200360391A1, “Medicinal Composition for Treating Intractable Heart Disease” (Osaka University, priority 2016, published 2020):
Like-named read-outs stand apart in the source and are kept apart here.

Columns and labels:
[1] = test system: rats; assay: Repeated oral administration toxicity study in rats (dose-setting basis); conditions: mg/kg twice per day, oral preparation
Text: The dose-setting basis for the doses of the test substances used in pharmacological tests is as described below.

[2] = test system: spontaneous dilated cardiomyopathy (J2N-k) hamster model; assay: Spontaneous dilated cardiomyopathy (J2N-k) hamster model, 8-week administration from 20 weeks of age (Tests 1-3): echocardiography, body weight; conditions: for Minimal effective dose (screening 2): mg/kg twice per day, oral preparation
Procedure: The doses of pharmaceutical products were determined based on the no-observed-adverse-effect levels in a long-term toxicity study using rats. δ-Glycan-deficient spontaneous dilated cardiomyopathy (J2N-k) male hamsters (Japan SLC, Inc.) were delivered at 18 weeks of age. After a 2-week quarantine/acclimation, echocardiography was performed.
Each of the pharmaceutical products (A to K and O) was individually administered twice daily (at an interval of 8 hours or more) by oral gavage, and echocardiography was performed after 4 and 8 weeks (before dissection). Differences from the value before the start of administration (at the time of grouping) (amount of change: Δ) in each group were examined, and the cardiac function (EF value, FS %, etc.) was compared with that in the vehicle group (Group 1). Moreover, the heart was removed […] after the start of administration, and electron microscopy and RNA protein measurement were performed. Specimens for immunopathology were also collected and evaluated.
Each pharmaceutical product was individually suspended in 0.5% CMC-Na (sodium carboxymethylcellulose; Wako Pure Chemical Industries, Ltd.) before use, and administered. […] To Group 1 (control), 0.5% CNC-Na (vehicle) was administered.
Each pharmaceutical product was individually suspended in 0.5% CMC-Na (sodium carboxymethylcellulose; Wako Pure Chemical Industries, Ltd.) before use, and administered. Test substance G was suspended in distilled water before use, and administered.
Reason the doses were set (assuming that the adult body weight was 60 kg, the same amounts as the maximum clinical doses were set) • 1) The clinical dose of C (ozagrel; OZ) was 200 mg twice per day. The dose was thus set to 3.3 mg/kg twice per day. • 2) The clinical dose of D (cilostazol; CS) was 100 mg twice per day. The dose was thus set to 1.7 mg/kg twice per day. • 3) The clinical dose of E (pirfenidone; PF) was 600 mg three times per day, i.e., 1800 mg/day in total. The dose was thus set to 15 mg/kg twice per day. • 4) The clinical dose of G (nintedanib sulfonate; OB) was 150 mg twice per day. The dose was thus set to 2.5 mg/kg twice per day. • 5) The clinical dose of P (carvedilol; CV) was 10 mg twice per day. The dose was thus set to 0.17 mg/kg twice per day. • 6) Preparation 2 (PLGA⋅MS preparation of camostat; B⋅MS): the clinical dose of active substance camostat was 200 mg three times per day, i.e., 600 mg/day in total; thus, intermittent subcutaneous administration at a daily dose of 10 mg/kg once every 4 weeks, twice in total was set. The dose was 1/28 of the total oral dose amount.
The dose volume in oral administration was 5 mL/kg (the amount of liquid to be administered to each animal was calculated based on the most recent body weight), and administered by oral gavage using a polypropylene disposable syringe and a rat stomach tube.
The administration period of each pharmaceutical product was 8 weeks.

[3] = test system: rats; conditions: rat, in vivo, sc; cited from earlier work
[4] = test system: mice with ethionine-induced pancreatitis; conditions: oral, twice daily; cited from earlier work
[5] = test system: rat coronary artery complete ischemia model; assay: Model of ischemia (MI) by rat coronary artery complete ligation (Tests 1 and 2): echocardiography, body weight; conditions: for value of change in E.F. compared with E.F. on Day 1 / value of change in F.S. compared with F.S. on Day 1: B-MS 100, C-MS 50, F-MS 30 mg/kg s.c. single injection
[6] = test system: mouse model of pulmonary embolism; conditions: oral pre-administration, cited from earlier work
[7] = test system: rats; conditions: rats, cited from earlier work
[8] = cited from earlier work
[9] = test system: spontaneously hypertensive rats (SHR); conditions: oral 0.1, 1 and 10 mg/kg for 2 weeks; cited from earlier work
[10] = test system: spontaneous dilated cardiomyopathy (J2N-k) hamster model; assay: Long-term (36 weeks) administration in J2N-k hamster model: cardiac function, survival rate; assay type: in vivo; conditions: 3.0 mg/kg
Procedure: ONO-1301 and (K) candesartan, which is ARB, were each individually orally administered to a δ-glycan-deficient spontaneous dilated cardiomyopathy (J2N-k) hamster model twice daily repeatedly for 36 weeks, after the onset of pathological condition (20 weeks old); and changes in cardiac function and survival rates in long-term administration were compared for evaluation. Specifically, echocardiographic measurement was performed after the onset of pathological condition (20 weeks old); the animals were grouped evenly based on the ejection fractions (EF values) and the body weights (Table 15), and each test substance was individually administered for 36 weeks.
The test was performed in the same manner as described in the section “1. Investigation of effects in spontaneous dilated cardiomyopathy (J2N-k) hamster model” above.
ONO-1301 was administered at 3 mg/kg twice per day. Candesartan was administered at 3 mg/kg once per day, and only vehicle was administered at the second administration. To the control group, vehicle (0.5% CMC-Na) was administered twice daily.

[11] = test system: dogs; conditions: 6-month toxicity study in dogs; cited from earlier work
[12] = MI Test 2, 14 Day, B 150, G 5, I 30, C 10 mg/kg p.o. b.i.d., mean ± S.D.
[13] = MI Test 2, 29 Day, B 150, G 5, I 30, C 10 mg/kg p.o. b.i.d., mean ± S.D.
[14] = Test 1, p.o. b.i.d., NOAEL-based dose
[15] = MI Test 1, NOAEL doses, 7 Day, mean ± S.D.
[16] = MI Test 1, NOAEL doses, 14 Day, mean ± S.D.
[17] = MI Test 1, NOAEL doses, 29 Day, mean ± S.D.

For `CN(C)C(=O)COC(=O)Cc1ccc(OC(=O)c2ccc(NC(=N)N)cc2)cc1` [Compound B, Camostat mesilate], the “Maximum no-observed-adverse-effect level (screening 1)” value [1] was 150 mg/kg, the “LVIDd 4 W” value ([2]; Test 1, p.o. b.i.d.) was 6.8 mm and the “LVIDd 8 W” value ([2]; Test 1, p.o. b.i.d.) was 7.3 mm. The “LVIDs 4 W” value ([2]; Test 1, p.o. b.i.d.) was 5.6 mm, the “LVIDs 8 W” value ([2]; Test 1, p.o. b.i.d.) was 6.1 mm and the “LVIDs 8 W” value ([2]; Test 1, p.o. b.i.d., listed as camostat) was “significantly lower”. The “Body weight 1 W” value ([2]; hamster, in vivo, po) was 114.4 g, the “Body weight 2 W” value ([2]; hamster, in vivo, po) was 117.7 g and the “Body weight 3 W” value ([2]; hamster, in vivo, po) was 119.0 g. The “Body weight 4 W” value ([2]; hamster, in vivo, po) was 121.3 g, the “Body weight 5 W” value ([2]; hamster, in vivo, po) was 121.9 g and the “Body weight 6 W” value ([2]; hamster, in vivo, po) was 122.2 g. For the same compound, the “Minimal effective dose (screening 2)” value [2] was 5 mg/kg, the LD50 [3] was 1329 mg/kg and the “Dose suppressing increase in protease activity in the pancreas” value [4] was 300 mg/kg. For the same compound, the “EF actual measured value and/or amount of change compared with control” value ([5]; MI Test 2, Day 14 and Day 29) was “significantly higher”, the “Values of cardiac function (EF, FS %) compared with control” value ([5]; MI Test 2, oral b.i.d. 4 weeks or single subcutaneous administration) was “significantly higher” and the “Body weight” value ([5]; MI Test 2, 1 Day, B 150, G 5, I 30, C 10 mg/kg p.o. b.i.d., B MS 100, C MS 50, I MS 30 mg/kg s.c. single injection, mean) was 243.5 g. The “Body weight” value ([5]; MI Test 2, 7 Day, B 150, G 5, I 30, C 10 mg/kg p.o. b.i.d., B MS 100, C MS 50, I MS 30 mg/kg s.c. single injection, mean) was 249.1 g, the “Body weight” value ([5]; MI Test 2, 14 Day, B 150, G 5, I 30, C 10 mg/kg p.o. b.i.d., B MS 100, C MS 50, I MS 30 mg/kg s.c. single injection, mean) was 262.4 g and the “value of change in E.F. compared with E.F. on Day 1” value [5, 12] was <−4.2 ± 2.5> %. The “value of change in F.S. compared with F.S. on Day 1” value [5, 12] was <−2.3 ± 5.3> %, the “Body weight” value ([5]; MI Test 2, 21 Day, B 150, G 5, I 30, C 10 mg/kg p.o. b.i.d., B MS 100, C MS 50, I MS 30 mg/kg s.c. single injection, mean) was 273.9 g and the “Body weight” value ([5]; MI Test 2, 29 Day, B 150, G 5, I 30, C 10 mg/kg p.o. b.i.d., B MS 100, C MS 50, I MS 30 mg/kg s.c. single injection, mean) was 293.5 g. The “value of change in E.F. compared with E.F. on Day 1” value [5, 13] was <−7.3 ± 4.2> % and the “value of change in F.S. compared with F.S. on Day 1” value [5, 13] was <−3.9 ± 2.2> %.

In the case of `O=C1CCc2cc(OCCCCc3nnnn3C3CCCCC3)ccc2N1` [Compound D, Cilostazol], the “Maximum no-observed-adverse-effect level (screening 1)” value [1] is given as 30 mg/kg, the “Dose significantly inhibiting pulmonary embolus death” value ([6]; ADP-induced model) is given as 30 mg/kg and the “Dose significantly inhibiting pulmonary embolus death” value ([6]; collagen-induced model) is given as 10 mg/kg. The “LVIDd 4 W” value ([2]; Test 1, p.o. b.i.d.) was 7.1 mm, the “LVIDd 8 W” value ([2]; Test 1, p.o. b.i.d.) was 7.5 mm and the “LVIDs 4 W” value ([2]; Test 1, p.o. b.i.d.) was 5.9 mm. The “LVIDs 8 W” value ([2]; Test 1, p.o. b.i.d.) was 6.3 mm, the “Body weight 1 W” value [2, 14] was 112.6 g and the “Body weight 2 W” value [2, 14] was 114.6 g. The “Body weight 3 W” value [2, 14] was 116.6 g, the “Body weight 4 W” value [2, 14] was 118.0 g and the “Body weight 5 W” value [2, 14] was 118.5 g. The “Cardiac function (EF, FS %) actual measured value and/or amount of change compared with control, 8 W value” ([2]; Test 3, clinical dose) was “significant cardiac function improvement effect”, the “Cardiac function (EF, FS %) actual measured value or change rate compared with control, 4 W value” ([2]; Test 3, clinical dose) was “significant cardiac function improvement effect” and the “Cardiac function improvement effect” value ([2]; Test 3, clinical dose, summary) was “cardiac function improvement effect was observed”. The “Minimal effective dose (screening 2)” value [2] was 1.7 mg/kg, the No-observed-adverse-effect level ([7]; 13 weeks / 3 months) was 30 mg/kg and the “Action on left ventricular systolic function” value ([5]; MI Test 1, 28-day repeated oral administration b.i.d., NOAEL-based doses) was “suppression action on the deterioration of left ventricular systolic function”. For the same compound, the “Cardiac function test (% FS): actual measured EF value compared with control” value ([5]; MI Test 1, Day 7) was “significantly higher”, the “Cardiac function test (% FS): amount of change in the EF value compared with control” value ([5]; MI Test 1, Day 7) was “not significantly higher” and the “EF actual measured value compared with control” value ([5]; MI Test 1, Day 7) was “significantly higher”. The “EF amount of change compared with control” value ([5]; MI Test 1, Day 7) was “not significantly higher”, the “Cardiac function test (% FS): amount of change compared with control” value ([5]; MI Test 1, Day 29) was “significantly higher” and the “Body weight” value ([5]; MI Test 1, NOAEL doses, 1 Day (grouping), mean ± S.D.) was 232.4 ± 4.9 g. It also gave a % FS: value of change compared with the value on Day 1 [5, 15] of -1%, an EF: value of change compared with the value on Day 1 [5, 15] of -1% and a % FS: value of change compared with the value on Day 1 [5, 16] of -2%. The EF: value of change compared with the value on Day 1 [5, 16] was -3%, the % FS: value of change compared with the value on Day 1 [5, 17] was -5% and the EF: value of change compared with the value on Day 1 [5, 17] was -9%. The Diarrhea cases ([8]; human, in vivo) was 0.3%, the Dizziness ([8]; human, in vivo) was 0.5% and the “Headache (headache/heavy-headedness) cases” value ([8]; human, in vivo) was 3.4%. For the same compound, the “Nausea cases (cilostazol: nausea/vomiting)” value ([8]; human, in vivo) was 0.3%, the Palpitations cases ([8]; human, in vivo) was 0.7% and the “Cases with side effects (including laboratory test value abnormality)” value ([8]; share of cases evaluated for safety) was 6.3%.

In the case of `CCOc1nc2cccc(C(=O)OC(C)OC(=O)OC3CCCCC3)c2n1Cc1ccc(-c2ccccc2-c2nn[nH]n2)cc1` (stereo not drawn) [candesartan, Candesartan cilexetil], the Blood pressure [9] is listed as “reduced blood pressure”, the Plasma renin concentration [9] is listed as “increased the plasma renin concentration in a dose-dependent manner” and the “EF compared with control group” value [10] is listed as “no longer significant in Week 30 and Week 36”. The “FS% compared with control group” value [10] was “no longer significant in Week 36”, the Survival rate [10] was “rapid decrease in the survival rate was observed from 29 weeks” and the No-observed-adverse-effect level [11] was 20 mg/kg. The No-observed-adverse-effect level ([7]; 6 months) was 10 mg/kg.
